Source: patent US20230050965A1, “SSTR5 ANTAGONISTS” (Kallyope, Inc., priority 2019, published 2023)

Tests used:
human SSTR5 = biological target: T1, human SSTR5 (Homo sapiens, UniProt P35346); assay: Inositol phosphate (IP1) accumulation assay, antagonist mode; type: cell-based; settings: CHO-K1 cells stably co-expressing human SSTR5 with Gqi5; pre-incubation with antagonist, then SST28 agonist; IP1 HTRF readout
T1 construct: expressed in transfected cells
From the text: Inositol Phosphate Accumulation Assay
CHO-K1 cells stably co-expressing human SSTR5 with Gqi5 were developed using Jump-In technology from Thermo-Fisher. Gqi5 is the mouse G alpha q protein, that was modified to interact with Gi-coupled GPCRs as described previously (Coward, P.; Chan, S. D.; Wada, H. G.; Humphries, G. M.; Conklin, B. R. Chimeric G proteins Allow a High-Throughput Signaling Assay of Gi-Coupled Receptors. Anal Biochem. 1999, 270(2), 242-248).
Co-expression of Gqi5 with SSTR5 allowed monitoring of SSTR5 activity by following IP1 accumulation. The assay was performed in a 384-well plate format using the IP1 assay kit from Cis-Bio in an antagonist mode, i.e., pre-incubation with antagonist following by receptor activation by agonist at a concentration generating 90% of full activation. Frozen cells expressing human SSTR5 were thawed, washed, and then plated in DMEM supplemented with 10% FBS and non-essential amino acids. 40 μL of 2.5×10^5 cells/mL were plated on a Poly D-Lysine coated 384-well white plate. The cells were then incubated for 16 hr. at 37° C./5% CO2. After 16 hour the medium was removed, and 10 μL of stimulation buffer was added to the cells. Test compounds were dissolved in DMSO at concentrations 2000-fold that of the final assay concentrations. 7.5 nL compound solutions were transferred to the cell plates using a Labcyte Echo® acoustic liquid handler. The plates were then incubated for 15 minutes at 37° C./5% CO2. After the first incubation, 5 μL of 30 nM SST28 were added to the cells, and the cells were incubated for 90 minutes at 37° C./5% CO2. 5 μL of detection buffer (prepared as described in the IP-1 kit) was added to each well, and the plates were incubated at RT for 1 hour.
TR-FRET was measured using a ClarioSTAR plate reader, calculating the ratio between emissions at 665 nm and 620 nm (HTRF ratio). The HTRF ratio for positive (Max) and negative (Min) controls were used to normalize HTRF data and generate values for % inhibition. IC50 and maximal inhibition values were determined using a standard 4-parameter fit.

[1] = Oral bioavailability after oral dosing in rat; settings: in vivo, Sprague Dawley rats, IV 1 mg/kg, PO 5 mg/kg, read-out: F % (oral bioavailability)
Protocol: Example A-2: Oral Bioavailability of the Compounds after Oral Dosing in Rat
Oral bioavailability of the compounds was determined in Sprague Dawley rats. The table below summarizes the results. Each compound was dosed intravenously (IV) at 1 mg/kg and orally (PO) 5 mg/kg using the respective vehicles listed below. The compounds display low (<10%) oral bioavailability (F %).

T1 sequence (P35346 whole entry): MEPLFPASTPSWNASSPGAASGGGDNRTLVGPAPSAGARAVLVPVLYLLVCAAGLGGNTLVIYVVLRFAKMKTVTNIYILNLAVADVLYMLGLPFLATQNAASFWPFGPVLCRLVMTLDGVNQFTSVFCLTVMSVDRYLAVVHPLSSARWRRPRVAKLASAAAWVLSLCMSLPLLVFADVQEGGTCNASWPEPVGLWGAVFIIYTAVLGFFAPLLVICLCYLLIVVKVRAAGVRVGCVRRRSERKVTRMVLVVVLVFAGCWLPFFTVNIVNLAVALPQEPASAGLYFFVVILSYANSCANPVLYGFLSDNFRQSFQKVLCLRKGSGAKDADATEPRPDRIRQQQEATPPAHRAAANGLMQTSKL

Row | Compound | IC50 (human SSTR5) [nM] | bioavailability [1] [%]
1 | CCOc1cc(-c2ccc(F)cc2)c(C2CC2)cc1CN1CCC2(CC1)CN(c1ccc(P(=O)(O)O)cc1)C(=O)O2 [Compound 1, (4-(8-((2-cyclopropyl-5-ethoxy-4′-fluoro-[1,1′-biphenyl]-4-yl)methyl)-2-oxo-1-oxa-3,8-diazaspiro[4.5]decan-3-yl)phenyl)phosphonic acid] | ≤ 100 | 0.9
2 | CCOc1cc(-c2ccc(F)cc2)c(C2CC2)cc1CN1CCC2(CC1)CN(c1ccc(P(C)(=O)O)cc1)C(=O)O2 [Compound 2, (4-(8-((2-cyclopropyl-5-ethoxy-4′-fluoro-[1,1′-biphenyl]-4-yl)methyl)-2-oxo-1-oxa-3,8-diazaspiro[4.5]decan-3-yl)phenyl)(methyl)phosphinic acid] | ≤ 100 | 8.7
3 | CCOc1cc(-c2ccc(F)cc2)c(C2CC2)cc1CN1CCC2(CC1)CN(c1ccc(P(=O)(O)OCC)cc1)C(=O)N2 [Compound 25, ethyl hydrogen (4-(8-((2-cyclopropyl-5-ethoxy-4′-fluoro-[1,1′-biphenyl]-4-yl)methyl)-2-oxo-1,3,8-triazaspiro[4.5]decan-3-yl)phenyl)phosphonate] | ≤ 100 | –
4 | CCOc1cc(-c2nc(C)no2)c(C2CC2)cc1CN1CCC2(CC1)CN(c1ccc(P(=O)(O)O)cc1)C(=O)N2 [Compound 27, (4-(8-(5-cyclopropyl-2-ethoxy-4-(3-methyl-1,2,4-oxadiazol-5-yl)benzyl)-2-oxo-1,3,8-triazaspiro[4.5]decan-3-yl)phenyl)phosphonic acid] | ≤ 100 | –
5 | CCOc1cc(-c2ccc(F)cc2)c(C2CC2)cc1CN1CCC2(CC1)CN(c1ccc(P(C)(=O)O)cc1)C(=O)N2 [Compound 28, (4-(8-((2-cyclopropyl-5-ethoxy-4′-fluoro-[1,1′-biphenyl]-4-yl)methyl)-2-oxo-1,3,8-triazaspiro[4.5]decan-3-yl)phenyl)(methyl)phosphinic acid] | ≤ 100 | –
6 | CCOc1cc(-c2ccc(F)cc2)c(C2CC2)cc1CN1CCC2(CC1)CC(=O)N(c1ccc(P(=O)(O)O)cc1)C2 [Compound 29, (4-(8-((2-cyclopropyl-5-ethoxy-4′-fluoro-[1,1′-biphenyl]-4-yl)methyl)-3-oxo-2,8-diazaspiro[4.5]decan-2-yl)phenyl)phosphonic acid] | ≤ 100 | –
7 | CCOc1cc(-c2ccc(F)cc2)c(C2CC2)cc1CN1CCC2(CC1)CN(c1ccc(CNC[C@H](O)[C@@H](O)[C@H](O)[C@H](O)CO)cc1)C(=O)O2 [Compound 32, 8-((2-cyclopropyl-5-ethoxy-4'-fluoro-[1,1'-biphenyl]-4-yl)methyl)-3-(4-((((2S,3R,4R,5R)-2,3,4,5,6-pentahydroxyhexyl)amino)methyl)phenyl)-1-oxa-3,8-diazaspiro [4.5]decan-2-one] | ≤ 100 | –
8 | CCOc1cc(-c2ccc(F)cc2)c(C2CCC2)cc1CN1CCC2(CC1)CN(c1ccc(P(=O)(O)O)cc1)C(=O)O2 [Compound 36, (4-(8-((2-cyclobutyl-5-ethoxy-4'-fluoro-[1,1'-biphenyl]-4-yl)methyl)-2-oxo-1-oxa-3,8-diazaspiro[4.5]decan-3-yl)phenyl)phosphonic acid] | ≤ 100 | –
9 | CCOc1cc(-c2ccc(F)cc2)c(C(C)C)cc1CN1CCC2(CC1)CN(c1ccc(P(=O)(O)O)cc1)C(=O)O2 [Compound 37, (4-(8-((5-ethoxy-4'-fluoro-2-isopropyl-[1,1'-biphenyl]-4-yl)methyl)-2-oxo-1-oxa-3,8-diazaspiro[4.5]decan-3-yl)phenyl)phosphonic acid] | ≤ 100 | –
10 | CCOc1cc(-c2ccc(F)cc2)c(C2CC2)cc1CN1CCN(S(=O)(=O)Cc2ccc(P(=O)(O)OCC)cc2)CC1 [Compound 39, ethyl hydrogen (4-(((4-((2-cyclopropyl-5-ethoxy-4′-fluoro-[1,1′-biphenyl]-4-yl)methyl)piperazin-1-yl)sulfonyl)methyl)phenyl)phosphonate] | ≤ 100 | –
11 | CCOc1cc(-c2ccc(F)cc2)c(C2CC2)cc1CN1CCN(C(=O)Cc2ccc(P(=O)(O)OCC)cc2)CC1 [Compound 40, ethyl hydrogen (4-(2-(4-((2-cyclopropyl-5-ethoxy-4′-fluoro-[1,1′-biphenyl]-4-yl)methyl)piperazin-1-yl)-2-oxoethyl)phenyl)phosphonate] | ≤ 100 | –
12 | CCOc1cc(-c2ccc(F)cc2)c(C2CC2)cc1CN1CCN(C(=O)Cc2ccc(P(=O)(O)O)cc2)CC1 [Compound 41, (4-(2-(4-((2-cyclopropyl-5-ethoxy-4′-fluoro-[1,1′-biphenyl]-4-yl)methyl)piperazin-1-yl)-2-oxoethyl)phenyl)phosphonic acid] | ≤ 100 | –
13 | CCOc1cc(C(=O)OC)c(C2CC2)cc1CN1CCN(C(=O)Oc2ccc(CNC[C@H](O)[C@@H](O)[C@H](O)[C@H](O)CO)cc2)CC1 [Compound 42, 4-((((2S,3R,4R,5R)-2,3,4,5,6-pentahydroxyhexyl)amino)methyl)phenyl 4-(5-cyclopropyl-2-ethoxy-4-(methoxycarbonyl)benzyl)piperazine-1-carboxylate] | > 5000 | –

More lines, now with the values ahead:

Row | IC50 (human SSTR5) [nM] | bioavailability [1] [%] | Compound
14 | ≤ 100 | 1.9 | CCOc1cc(-c2ccc(F)cc2)c(C2CC2)cc1CN1CCC2(CC1)CN(c1ccc([PH](=O)O)cc1)C(=O)O2 [Compound 3, (4-(8-((2-cyclopropyl-5-ethoxy-4′-fluoro-[1,1′-biphenyl]-4-yl)methyl)-2-oxo-1-oxa-3,8-diazaspiro[4.5]decan-3-yl)phenyl)phosphinic acid]
15 | ≤ 100 | 0.2 | CCOc1cc(-c2ccc(F)cn2)c(C2CC2)cc1CN1CCC2(CC1)CN(c1ccc(P(=O)(O)O)cc1)C(=O)O2 [Compound 9, (4-(8-(5-cyclopropyl-2-ethoxy-4-(5-fluoropyridin-2-yl)benzyl)-2-oxo-1-oxa-3,8-diazaspiro[4.5]decan-3-yl)phenyl)phosphonic acid]
16 | ≤ 100 | – | CCOc1cc(-c2nc(C)no2)c(C2CC2)cc1CN1CCC2(CC1)CN(c1ccc(P(=O)(O)O)cc1)C(=O)O2 [Compound 26, (4-(8-(5-cyclopropyl-2-ethoxy-4-(3-methyl-1,2,4-oxadiazol-5-yl)benzyl)-2-oxo-1-oxa-3,8-diazaspiro[4.5]decan-3-yl)phenyl)phosphonic acid]
17 | ≤ 100 | – | CCOc1cc(-c2ccc(F)cc2)c(C2CC2)cc1CN1CCC2(CC1)CN(c1ccc(CP(=O)(O)O)cc1)C(=O)O2 [Compound 30, (4-(8-((2-cyclopropyl-5-ethoxy-4'-fluoro-[1,1'-biphenyl]-4-yl)methyl)-2-oxo-1-oxa-3,8-diazaspiro[4.5]decan-3-yl)benzyl)phosphonic acid]
18 | 100 to 1000 | – | CCOc1cc(S(C)(=O)=O)c(C2CC2)cc1CN1CCC2(CC1)CN(c1cccc(CCCCNC(=O)NC(CO)(CO)CO)c1)C(=O)N2 [Compound 31, 1-(4-(3-(8-(5-cyclopropyl-2-ethoxy-4-(methylsulfonyl)benzyl)-2-oxo-1,3,8-triazaspiro[4.5]decan-3-yl)phenyl)butyl)-3-(1,3-dihydroxy-2-(hydroxymethyl)propan-2-yl)urea]
19 | ≤ 100 | – | CCOc1cc(-c2ccc(F)cn2)c(C2CCC2)cc1CN1CCC2(CC1)CN(c1ccc(P(=O)(O)O)cc1)C(=O)O2 [Compound 35, (4-(8-(5-cyclobulyl-2-ethoxy-4-(5-fluoropyridin-2-yl)benzyl)-2-oxo-1-oxa-3,8-diazaspiro[4.5]decan-3-yl)phenyl)phosphonic acid]
20 | ≤ 100 | – | CCOc1cc(-c2ccc(F)cc2)c(C2CC2)cc1CN1CCN(S(=O)(=O)Cc2ccc(P(=O)(O)O)cc2)CC1 [Compound 38, (4-(((4-((2-cyclopropyl-5-ethoxy-4′-fluoro-[1,1′-biphenyl]-4-yl)methyl)piperazin-1-yl)sulfonyl)methyl)phenyl)phosphonic acid]
